Laboratory results as given in paper PMC4479448, “Delivery of Topically Applied Calpain Inhibitory Peptide to the Posterior Segment of the Rat Eye” (PLoS ONE, 2015).
Where a SMILES comes first, the peptide text is derived from it.

Experiments:
[1] = test system: photoreceptors; settings: topical instillation of 1 mM eye drops, rhodopsin P23H transgenic rats; cited from earlier work
Excerpt: Every effort was taken to minimize suffering. Before the rat eyes ... || Calpains are members of the Ca^2+-activated cysteine proteinases and play important roles in various physiological and pathological pathways, such as regulating signal transductions, the cell cycle, cell adhesion, gene expression, and cell death.

[2] = 1 mM eye drops twice a day for 7 days, adult female SD rats
[3] = Immunohistochemical distribution of topically instilled peptide in and around the eye (anti-HIV1 tat antibody); format: in vivo, Sprague-Dawley rats; settings: for distribution of topically instilled peptide (immunoreactivity): n = 3 eyes (3 rats)
Description: (§1) Every effort was taken to minimize suffering. […] Animals were randomly allocated into experimental or control group.
Distribution of the peptide was analyzed by immune-positive reactions observed in and around the rat eyes. Immunohistochemical experiments were performed in line with our previously reported method. Briefly, rats were euthanized after the final eye drop instillation by inhalation of carbon dioxide at 1, 3 and 6 h. Eyes were immediately enucleated after euthanasia. For the immunohistochemistry, eyes were fixed in 4% paraformaldehyde in phosphate-buffered saline (PBS), pH 7.4, for 20 min at room temperature. Eyes were then placed in the fixative overnight at 4°C. Specimens were cryoprotected for 4 h in 10% then 20% sucrose in PBS, and then frozen in OCT compound. […] The sections were rinsed in PBS and blocked with 1% skim milk in PBS containing 0.05% Tween (PBS-T) for 2 h at room temperature. Sections were incubated overnight at 4°C with the mouse monoclonal antibody raised against HIV1 tat (ab63957, 1:200, Abcam, Cambridge, UK) diluted in 1% skim milk in PBS-T as the primary antibody. Sections were then washed with PBS-T and incubated with tetramethylrhodamine isothiocyanate isomer R (TRITC)-conjugated rabbit anti-mouse IgG (R0270, 1:200, Dako, Glostrup, Denmark) overnight at 4°C. Sections were washed with PBS-T and nuclei were counterstained with 4’ 6-diamidino-2-phenylindole (DAPI). Immunofluorescent images were obtained by laser confocal microscopy (FV1000-D; Olympus, Tokyo, Japan).

[4] = Sandwich ELISA quantification of topically instilled peptide in retinal extract; format: in vivo, Sprague-Dawley rats; settings: for roughly equivalent concentration of the peptide in the intracellular space: converted from ELISA value; for concentration of the Tat-μCL in the retina: 1 mM, 20 μl eye drops twice a day for 7 days, whole retina extract, sandwich ELISA, average ± SD, n = 6 eyes (6 rats)
Description: as §1
The amount of the peptide delivered to the retina was quantified by sandwich ELISA as per a previously reported method. In this procedure, we first added 50 μl of rabbit polyclonal anti-HIV1 tat antibody (1:2000, ab43014, Abcam) diluted with 0.05 M carbonate-bicarbonate buffer, pH 9.6, to 96-well immunoplates (Nunc, Roskilde, Denmark). After incubating the plates overnight at 4°C, the plates were washed three times with PBS-T, and then incubated with PBS-T containing 10% bovine serum albumin (BSA) at 37°C for 2 h. Subsequently, we then washed the plates with PBS and incubated the plates with 50 μl of retinal extract or standard peptide (100 amol, 1 fmol, 10 fmol, 100 fmol, 1 pmol, 10 pmol, 100 pmol and 1 nmol Tat-μCL) diluted with PBS-T containing 10% BSA at 37°C for 2 h. The retinal extract was obtained by sonication and gradual centrifugations at 600×g for 5 min, 4,500×g for 10 min, and 20,000×g for 20 min. The supernatant of the final centrifugation was used as the retinal extract. The protein concentration was measured by the Bradford’s assay with bovine serum albumin used as the standard. After washing the plate three times with PBS-T, the plates were incubated with 50 μl of mouse monoclonal anti-HIV1 tat antibody (1:1000, ab63957, Abcam) diluted with PBS-T containing 10% BSA at 37°C for 2 h. Subsequently, the plates were then washed three times with PBS-T and incubated with horse radish peroxidase (HRP)-conjugated rabbit anti-mouse IgG (1:1000) diluted with PBS-T containing 10% BSA at 37°C for 2 h. After incubation, the plates were washed three times with PBS-T and then once with distilled water. The reaction was performed by incubating the plates with 50 μl of citrate-phosphate buffer, pH 5.0, containing 0.04% o-phenylenediamine and 0.006% hydrogen peroxide. Color development was inhibited by the addition of 50 μl of 2.4 M sulfuric acid. Absorbance was determined at 492 nm.
All statistical analyses were conducted using the SPSS version 22 software program (IBM, Armonk, NY). A one-way ANOVA was used to statistically compare the results between multiple groups. And then, as a post hoc analysis, a Dunnett T3 test was used to determine significance between the two groups. In the present study, P < 0.05 was considered statistically significant. Experiments were performed in triplicate to confirm the reproducibility.

[5] = rat, in vivo; cited from earlier work

Compound: CC(C)C[C@H](NC(=O)[C@H](C)NC(=O)[C@H](CC(=O)O)NC(=O)[C@@H]1CCCN1C(=O)[C@H](CCC(N)=O)NC(=O)[C@@H]1CCCN1C(=O)[C@@H]1CCCN1C(=O)[C@H](CCCNC(=N)N)NC(=O)[C@H](CCCNC(=N)N)NC(=O)[C@H](CCCNC(=N)N)NC(=O)[C@H](CCC(N)=O)NC(=O)[C@H](CCCNC(=N)N)NC(=O)[C@H](CCCNC(=N)N)NC(=O)[C@H](CCCCN)NC(=O)[C@H](CCCCN)NC(=O)[C@H](CCCNC(=N)N)NC(=O)CN)C(=O)N[C@@H](CCCCN)C(=O)N[C@@H](CO)C(=O)N[C@@H](CCCNC(=N)N)C(=O)N[C@H](C(=O)N[C@@H](CC(C)C)C(=O)N[C@@H](CCCNC(=N)N)C(=O)O)[C@@H](C)O [Tat-μCL] (H-GRKKRRQRRRPPQPDALKSRTLR-OH)
- adverse effects [1]: without causing any adverse effects
- adverse effects [2]: without any adverse effects
- time after final application of most prominent immunoreactivity ([3]; anterior segment tissues, examined at 1 and 3 h): 1 h
- distribution of topically instilled peptide (immunoreactivity) ([3]; anterior segment): diffusely distributed in the various tissues including the cornea, sclera, iris, ciliary body, choroid and retinal pigment epithelium (RPE)
- time after final instillation of most prevalent immunoreactivity ([3]; optic disc area, examined at 1, 3 and 6 h): 1 h
- distribution of topically instilled peptide (immunoreactivity) ([3]; optic disc area): detected in the optic nerve, optic nerve sheath, optic disc, all layers of the retina, and the retrobulbar connective tissues
- time after final application of most abundant immunoreactivity ([3]; posterior segment, examined at 1, 3 and 6 h): 1 h
- distribution of topically instilled peptide (immunoreactivity) ([3]; posterior segment): diffusely distributed throughout the retina, including the photoreceptor outer segments, outer nuclear layer, inner nuclear layer, and ganglion cell layer
- roughly equivalent concentration of the peptide in the intracellular space ([4]; 1 h after final eye drops): ~4.48 µM
- concentration of the Tat-μCL in the retina ([4]; 1 h after final instillation): 15.3 pg/μg protein
- roughly equivalent concentration of the peptide in the intracellular space ([4]; 3 h after final eye drops): ~1.70 µM
- concentration of the Tat-μCL in the retina ([4]; 3 h after final instillation): 5.8 pg/μg protein
- roughly equivalent concentration of the peptide in the intracellular space ([4]; 6 h after final eye drops): ~0.29 µM
- concentration of the Tat-μCL in the retina ([4]; 6 h after final instillation): 1.0 pg/μg protein
- time for which sufficient concentration (> IC50) is maintained in the rat retina ([4]; after final application of 1 mM eye drops): at least 6 h
- half-life of Tat-μCL in the rat retina ([4]; estimated from ELISA results (Fig 4), topical 1 mM eye drops): approximately 2.6 h

Compound: nerve growth factor
- time of peak in the retina after eye drop application [5]: 6 h
